Paper PMC10150365 (Journal of Medicinal Chemistry, 2023)
Converted amounts (≈) assume the structure as drawn. “And” between values parts separate entries of the source, which are not always exact repeats. Equal values may be shown once. Read-outs that look alike come from different tables or passages of the source. Marks after values point to notes of the source that are not given here.

Tests used:
P-gp = experiment: iv PK in CF1 wild-type and P-gp-knockout mice; format: in vivo, mouse; details: for Cltb: 5 mg/kg iv, 90% CI, 5 mg/kg
[1] = iv PK in CF1 wild-type and P-gp-knockout mice; format: in vivo, mouse; details: mouse, in vivo, iv, 5 mg/kg, read-out: Vss
physchem [2] = details: pH 7.4
[3] = test system: P-gp-mediated efflux (CH1^doxR/CH1^WT); format: cell-based, human; details: ratio of geometric mean GI50 values, CellTiter-Blue
[4] = Plasma protein binding and blood-to-plasma ratio; details: for fub: BALB/c mouse blood, fub = fup/B:P; for Plasma, fup: BALB/c mouse, 90% CI
in vitro [5] = format: in vitro ADME; details: male, Sprague Dawley, rat, microsomes, pH 7.4; n = 1, fraction unbound assumed 1; read-out: Microsome Clint, rat (RLM)
SK-OV-3 = experiment: cells; format: cell-based, human; details: for GI50: Homo sapiens
in vitro [6] = format: in vitro ADME, mouse
in vitro [7] = format: in vitro ADME; details: mouse
physchem [8] = details: pH 7.4; remark: listed apart in the source
in vitro [9] = format: in vitro ADME; details: both sexes, human, microsomes, pH 7.4; n = 1, fraction unbound assumed 1; read-out: Microsome Clint, human (HLM)
CH1^doxR = experiment: CH1doxR growth inhibition, CellTiter-Blue; format: cell-based, human
CH1^WT = experiment: CH1 WT growth inhibition, CellTiter-Blue; format: cell-based; details: Homo sapiens, CH1WT
[10] = Rat blood PK (Sprague-Dawley); format: in vivo; details: SD rats
[11] = Plasma protein binding and blood-to-plasma ratio; format: in vitro ADME, rat
in vitro [12] = details: human; for recovery: Caco-2, pH 7.4, Recovery
[13] = Free fraction in CellTiter-Blue assay medium (dialysis); format: in vitro ADME; details: dialysis from CellTiter-Blue assay medium; 90% CI
[14] = Plasma protein binding and blood-to-plasma ratio; format: in vitro ADME, mouse
Plasma stability = format: in vitro ADME; details: pooled plasma, read-out: Compound remaining (% of 0 min); for remaining at 15 min, 1 µM: 37 °C
Experimental: AUCu0-24h was assumed from the mouse efficacy study. […] F=oral bioavailability and
Compd Species Compound remaining (% of 0 min)

OVCAR5 = details: OVCAR5, 96 h
PA1 = details: PA1, 96 h
RMG-1 = details: RMG-1, 96 h
[15] = test system: human ovarian cancer cell lines; details: carboplatin N = 4 cell lines; 1 N = 9 cell lines
[16] = female, BALB/c, mouse, in vivo, po, 5 mg/kg

**Q.** What does the source list for Cc1ccc(NC(=O)c2ccc3c(c2)OCCO3)cc1NC(=O)c1ccc2nc(CN3CCN(C(C)C)CC3)ccc2c1 [Compound 16, N-(5-(2,3-Dihydrobenzo[b][1,4]dioxine-6-carboxamido)-2-methylphenyl)-2-((4-isopropylpiperazin-1-yl)methyl)quinoline-6-carboxamide]?
**A.** Extraction Ratio (% of HBF) (P-gp; CF1^PGP-KO mice): 27 (21-34) %; Cltb (P-gp; CF1^PGP-KO mice): 24 mL/min/kg and 24 (31-19) mL/min/kg; Extraction Ratio (% of HBF) (P-gp; CF1^WT mice): 39 (46-33) %; Cltb (P-gp; CF1^WT mice): 35 mL/min/kg and 35 (42-30) mL/min/kg; Vd ([1]; CF1 mdr1a P-gp deficient (CF1-Abcb1amds), CF1^PGP-KO mice): 3.6 L/kg; Vd ([1]; CF1 wild type, CF1^WT mice): 3.2 L/kg; chromatographic logD (physchem [2]): 1.9; CH1^doxR/CH1^WT (fold resistance) [3]: 8.4; fub [4]: 0.032; Plasma, fup [4]: 0.042 (0.071-0.024); blood plasma ratio at 30 min, 1 µM ([4]; female, BALB/c, mouse, plasma): 1.3; microsomal CLint at 0.75 h, 1 µM (in vitro [5]): 7 µL/min/mg; GI50 (SK-OV-3; SK-OV-3, 96 h, read-out: SK-OV-3 pGI50 ± SEM (n) (converted)): 8.71 nM; GI50 (SK-OV-3; SK-OV-3, 96 h, CellTiter-Blue, geometric mean, read-out: SK-OV-3 GI50): 8.8 nM; Fmax (Mouse blood PK (BALB/c); BALB/c mice): 62%; iv Cltb (Mouse blood PK (BALB/c); BALB/c mice, iv 5 mg/kg (18: 1 mg/kg), 90% CI): 34 (36–32) mL/min/kg; Free Cav^0–24h (Mouse blood PK (BALB/c); BALB/c mice, po, AUC^inf/24*fub): 0.66 nM; CLu (Mouse blood PK (BALB/c); BALB/c mice, CLtb/fub): 1100 mL/min/kg; Vdu (Mouse blood PK (BALB/c); BALB/c mice, Vss/fub): 80 L/kg; extraction ratio (Mouse blood PK (BALB/c); BALB/c mice, hepatic blood flow 90 mL/min/kg): 38%; Vd (Mouse blood PK (BALB/c); female, BALB/c, mouse, in vivo, iv): 2.6 L/kg; half-life at 24 h (Mouse blood PK (BALB/c); female, BALB/c, mouse, in vivo, iv, 5 mg/kg): 1.2 h; Cmax (Mouse blood PK (BALB/c); [16]): 130 nM; Tmax at 24 h (Mouse blood PK (BALB/c); [16]): 1.7 h; bioavailability at 24 h (Mouse blood PK (BALB/c); [16]): 11%; AUC (Mouse blood PK (BALB/c); female, BALB/c, mouse, in vivo, po, 5 mg/kg, AUCu^0–6h, BALB/c mice, AUC*fub): 0.014 µM·h; AUC (Mouse blood PK (BALB/c); female, BALB/c, mouse, in vivo, po, 5 mg/kg, po AUC^0–6h, BALB/c mice, po 5 mg/kg, 90% CI): 0.43 µM·h; microsomal CLint (in vitro [6]; male, CD1, mouse, microsomes, pH 7.4, n = 1, fraction unbound assumed 1, read-out: Microsome Clint, mouse (MLM)): 10 µL/min/mg; Pred. in vivo CLu from MLM (in vitro [6]; scaling factors, well-stirred model): 39 mL/min/kg; hepatocyte CLint at 1 h, 1 µM (in vitro [7]; hepatocytes, n = 1, read-out: Mouse Heps CLint): 20 µL/min/1e6 cells; Pred. in vivo CLu from Heps (in vitro [7]; fraction unbound in assay assumed 0.4 or 0.2): 460 ^h mL/min/kg; solubility kinetic at 2 h, 100 µM (physchem [8]): 80 µM (≈ 46.4 µg/mL); microsomal CLint at 0.75 h, 1 µM (in vitro [9]): 43 µL/min/mg

**Q.** Which GI50 (CH1^doxR; Homo sapiens, + verapamil 2 µM) does the source give for COc1cccc2c1C(=O)c1c(O)c3c(c(O)c1C2=O)C[C@@](O)(C(=O)CO)C[C@@H]3O[C@H]1C[C@H](N)[C@H](O)[C@H](C)O1 [Doxorubicin] here?
**A.** 1.9 nM

**Q.** And the GI50 (CH1^doxR; Homo sapiens, no verapamil)?
**A.** 310 nM

**Q.** And the GI50 (CH1^doxR; no verapamil)?
**A.** 305 nM

**Q.** What about the GI50 (CH1^WT; + verapamil 2 µM) of the same compound?
**A.** 0.3 nM

**Q.** What about the GI50 (CH1^WT; no verapamil) of the same compound?
**A.** 0.4 nM

**Q.** For Cc1ccc(NC(=O)c2ccc3c(c2)OCCO3)cc1NC(=O)c1ccc2nc(OCCN3CCCC3)ccc2c1 [Compound 1], which Fmax [10] is on record?
**A.** 71%

**Q.** And the “iv Cltb” value ([10]; iv)?
**A.** 20 mL/min/kg

**Q.** And the “Free Cav^0–24h” value ([10]; po (Table S12))?
**A.** 0.72 nM

**Q.** And the Vdu ([10]; Vss/fub)?
**A.** 230 L/kg

**Q.** And the Cmax ([10]; female, Sprague-Dawley (CD), rat, whole blood, 5 mg/kg, po)?
**A.** 63 nM

**Q.** And the bioavailability at 24 h ([10]; female, Sprague-Dawley (CD), rat, whole blood, po, 5 mg/kg)?
**A.** 11%

**Q.** What about the Vd ([10]; female, Sprague-Dawley (CD), rat, whole blood, iv, read-out: Vss) of the same compound?
**A.** 4.4 L/kg

**Q.** What about the Tmax ([10]; female, Sprague-Dawley, rat, whole blood, 5 mg/kg, po) of the same compound?
**A.** > 6 h

**Q.** And the half-life ([10]; female, Sprague-Dawley, rat, whole blood, 5 mg/kg, terminal, from iv dose)?
**A.** 3.2 h

**Q.** What about the AUC ([10]; female, Sprague-Dawley, rat, whole blood, po, 5 mg/kg, po, t = 24 h, read-out: po AUC^0–t) of the same compound?
**A.** 0.84 µM·h

**Q.** And the fub [4]?
**A.** 0.0083

**Q.** What about the “Plasma, fup” value [4] of the same compound?
**A.** 0.010

**Q.** And the fub ([11]; Sprague Dawley rat blood, fub = fup/B:P)?
**A.** 0.019

**Q.** What about the “Plasma, fup” value ([11]; Sprague Dawley rat, 90% CI) of the same compound?
**A.** 0.029 (0.036-0.023)

**Q.** What about the Papp A→B at 2 h, 10 µM (in vitro [12]; Caco-2, pH 7.4) of the same compound?
**A.** 2.4 ×10⁻⁶ cm/s

**Q.** What about the recovery (in vitro [12]; A2B + LY335979, geometric mean row) of the same compound?
**A.** 50%

**Q.** What about the recovery (in vitro [12]; A2B + LY335979, individual experiments) of the same compound?
**A.** 50%

**Q.** What about the recovery (in vitro [12]; A2B, geometric mean row) of the same compound?
**A.** 90%

**Q.** And the recovery (in vitro [12]; A2B, individual experiments)?
**A.** 90%

**Q.** What about the recovery (in vitro [12]; B2A + LY335979, geometric mean row) of the same compound?
**A.** 100%

**Q.** And the recovery (in vitro [12]; B2A + LY335979, individual experiments)?
**A.** 100%

**Q.** And the recovery (in vitro [12]; B2A, geometric mean row)?
**A.** 70%

**Q.** What about the recovery (in vitro [12]; B2A, individual experiments) of the same compound?
**A.** 70%

**Q.** And the “Assay medium, fua” value [13]?
**A.** 0.47 (0.54-0.42)

**Q.** What about the fub ([14]; athymic mouse blood, fub = fup/B:P) of the same compound?
**A.** 0.015

**Q.** What about the “Plasma, fup” value ([14]; athymic mouse, 90% CI) of the same compound?
**A.** 0.025 (0.031-0.020)

**Q.** What about the remaining at 15 min, 1 µM (Plasma stability; human plasma) of the same compound?
**A.** 104%

**Q.** What about the remaining at 30 min, 1 µM (Plasma stability; human plasma) of the same compound?
**A.** 96.4%

**Q.** What about the remaining at 60 min, 1 µM (Plasma stability; human plasma) of the same compound?
**A.** 97%

**Q.** What about the remaining at 120 min, 1 µM (Plasma stability; human plasma) of the same compound?
**A.** 95.1%

**Q.** And the remaining at 15 min, 1 µM (Plasma stability; mouse plasma)?
**A.** 97.8%

**Q.** What about the remaining at 30 min, 1 µM (Plasma stability; mouse plasma) of the same compound?
**A.** 91.3%

**Q.** And the remaining at 60 min, 1 µM (Plasma stability; mouse plasma)?
**A.** 93.3%

**Q.** What about the remaining at 120 min, 1 µM (Plasma stability; mouse plasma) of the same compound?
**A.** 85.9%

**Q.** What about the A2B (Caco-2; geometric mean) of the same compound?
**A.** 2.4 nm/s

**Q.** What about the B2A (Caco-2; geometric mean) of the same compound?
**A.** 39 nm/s

**Q.** What about the “A2B + LY335979” value (Caco-2; individual experiments) of the same compound?
**A.** 2.3 nm/s

**Q.** What about the B2A (Caco-2; individual experiments) of the same compound?
**A.** 23 nm/s and 46 nm/s and 55 nm/s

**Q.** What about the “B2A + LY335979” value (Caco-2; individual experiments) of the same compound?
**A.** 15 nm/s

**Q.** Which “pGI50±SEM (n)” value (OVCAR5) does the source give for Carboplatin here?
**A.** < 5.0

**Q.** What about the “pGI50±SEM (n)” value (PA1) of the same compound?
**A.** 5.8

**Q.** And the “pGI50±SEM (n)” value (RMG-1)?
**A.** < 4.7

**Q.** And the “SK-OV-3 pGI50 ± SEM (n)” value (SK-OV-3; 96 h, CellTiter-Blue, pGI50 = −log GI50 (M))?
**A.** < 4.7

**Q.** What about the “pGI50 across the panel” value [15] of the same compound?
**A.** < 6
